From ChEMBL document CHEMBL1201862, “PubChem BioAssay data set” (2004)
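Tested at 5 concentrations; 48 h exposure; 96-well plates; endpoints linearly interpolated, else capped at highest concentration. GI50 marks 50% less growth.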 Calls of active or inactive are those of the source. Rule as the data show it: active = GI50 up to about 1.1 µM and inactive = higher.

Legend:
Test in all cases: DTP human tumour cell line panel, 48 h
MOLT-4 = tested on: MOLT-4
SK-OV-3 = tested on: SK-OV-3
HOP-62 = tested on: HOP-62
PC-3 = tested on: PC-3
SK-MEL-5 = tested on: SK-MEL-5
OVCAR-5 = tested on: OVCAR-5
SK-MEL-2 = tested on: SK-MEL-2
HOP-92 = tested on: HOP-92
MCF7 = tested on: MCF7
UACC-62 = tested on: UACC-62
OVCAR-3 = tested on: OVCAR-3
HT-29 = tested on: HT-29
TK-10 = tested on: TK-10
NCI-H23 = tested on: NCI-H23
HCT-116 = tested on: HCT-116
SF-539 = tested on: SF-539
A498 = tested on: A498
RPMI-8226 = tested on: RPMI-8226
MDA-MB-231 = tested on: MDA-MB-231

Structure (SMILES) | GI50 (MOLT-4) | GI50 (SK-OV-3) | GI50 (HOP-62) | GI50 (PC-3) | GI50 (SK-MEL-5) | GI50 (OVCAR-5) | GI50 (SK-MEL-2) | GI50 (HOP-92) | GI50 (MCF7) | GI50 (UACC-62) | GI50 (OVCAR-3) | GI50 (HT-29) | GI50 (TK-10) | GI50 (NCI-H23) | GI50 (HCT-116) | GI50 (SF-539) | GI50 (A498) | GI50 (RPMI-8226) | GI50 (MDA-MB-231)
O=C1c2ccccc2C(=O)c2c(NC(=O)c3ccc4c5c(ncnc35)-c3ccccc3C4=O)cccc21 | > 100 µM (inactive) | 23.2 µM (inactive) | 14.7 µM (inactive) | > 100 µM (inactive) | > 100 µM (inactive) | > 100 µM (inactive) | 89.3 µM (inactive) | 53.3 µM (inactive) | > 100 µM (inactive) | > 100 µM (inactive) | 37.1 µM (inactive) | > 100 µM (inactive) | 21.8 µM (inactive) | 33.4 µM (inactive) | > 100 µM (inactive) | 52.4 µM (inactive) | 40.6 µM (inactive) | > 100 µM (inactive) | 32.4 µM (inactive)
O=C(O)c1cc2c(cc1S(=O)(=O)O)C1C(C3C2C2(Cl)C(Cl)=C(Cl)C3(Cl)C2(Cl)Cl)C2(Cl)C(Cl)=C(Cl)C1(Cl)C2(Cl)Cl (stereo not given) | 27.6 µM (inactive) | 39.9 µM (inactive) | 26.2 µM (inactive) | 41 µM (inactive) | 34.7 µM (inactive) | 23.3 µM (inactive) | 27 µM (inactive) | 29.2 µM (inactive) | 34.8 µM (inactive) | 21.9 µM (inactive) | 22.9 µM (inactive) | 21.8 µM (inactive) | > 100 µM (inactive) | 26.4 µM (inactive) | 17.4 µM (inactive) | 25.4 µM (inactive) | 97.1 µM (inactive) | 32.6 µM (inactive) | 24.4 µM (inactive)
CN(C)/C=N/S(=O)(=O)c1nn2c(C=O)c(-c3ccc(-c4ccccc4)cc3)nc2s1 | 0.283 µM (active) | 15.1 µM (inactive) | 8.61 µM (inactive) | 2 µM (inactive) | 1.61 µM (inactive) | 6.89 µM (inactive) | 2.69 µM (inactive) | 2.65 µM (inactive) | 0.838 µM (active) | 2.34 µM (inactive) | 1.92 µM (inactive) | 0.347 µM (active) | 1.83 µM (inactive) | 1.78 µM (inactive) | 1 µM (active) | 2.54 µM (inactive) | 21.3 µM (inactive) | 0.83 µM (active) | 2.99 µM (inactive)
CC[C@@]1(O)C(=O)OCc2c1cc1n(c2=O)Cc2c-1nc1ccccc1c2/C=N\NC(=O)C1CCCN1 (stereo not given in full) | 0.221 µM (active) | 0.442 µM (active) | < 0.0196 µM (active) | 2.47 µM (inactive) | 0.238 µM (active) | 4.93 µM (inactive) | 11.8 µM (inactive) | 0.601 µM (active) | < 0.0177 µM (active) | < 0.0182 µM (active) | 4.42 µM (inactive) | 1.15 µM (inactive) | 19.4 µM (inactive) | 0.0509 µM (active) | 0.354 µM (active) | < 0.01 µM (active) | 0.435 µM (active) | 0.818 µM (active) | 14.7 µM (inactive)
COC(=O)C1=C(C(=O)Nc2cccnc2Cl)N(c2ccc(OC)cc2[N+](=O)[O-])C(c2ccc(C)cc2)=CC1c1ccc(OC)cc1OC (stereo not given) | 7.94 µM (inactive) | 23.7 µM (inactive) | 23.3 µM (inactive) | 27.5 µM (inactive) | 10 µM (inactive) | 29 µM (inactive) | 17.9 µM (inactive) | 31.1 µM (inactive) | 2.15 µM (inactive) | 24.3 µM (inactive) | 8.57 µM (inactive) | 3.89 µM (inactive) | 20.7 µM (inactive) | 22.1 µM (inactive) | 9.98 µM (inactive) | 4.76 µM (inactive) | 16.7 µM (inactive) | 2.37 µM (inactive) | 17.9 µM (inactive)
